The record followed here is ChEMBL document CHEMBL1131476, “Synthesis of a methylenebis(phosphonate) analogue of mycophenolic adenine dinucleotide: a glucuronidation-resistant MAD analogue of NAD” (J Med Chem, 1998).

The subject of one experiment is K562. The experiment can be described thus: Inhibitory activity against growth of human erythroleukemia […] cells. It counts as functional, cell-based.
The target of experiment [1] is Inosine-5'-monophosphate dehydrogenase 1 (Homo sapiens, UniProt P20839). The experiment can be described thus: Inhibitory activity against human Inosine-5'-monophosphate dehydrogenase 1 (IMPDH type I isoform); Range is 33-37 nM.
Sequence of Inosine-5'-monophosphate dehydrogenase 1 (P20839 whole entry, canonical isoform): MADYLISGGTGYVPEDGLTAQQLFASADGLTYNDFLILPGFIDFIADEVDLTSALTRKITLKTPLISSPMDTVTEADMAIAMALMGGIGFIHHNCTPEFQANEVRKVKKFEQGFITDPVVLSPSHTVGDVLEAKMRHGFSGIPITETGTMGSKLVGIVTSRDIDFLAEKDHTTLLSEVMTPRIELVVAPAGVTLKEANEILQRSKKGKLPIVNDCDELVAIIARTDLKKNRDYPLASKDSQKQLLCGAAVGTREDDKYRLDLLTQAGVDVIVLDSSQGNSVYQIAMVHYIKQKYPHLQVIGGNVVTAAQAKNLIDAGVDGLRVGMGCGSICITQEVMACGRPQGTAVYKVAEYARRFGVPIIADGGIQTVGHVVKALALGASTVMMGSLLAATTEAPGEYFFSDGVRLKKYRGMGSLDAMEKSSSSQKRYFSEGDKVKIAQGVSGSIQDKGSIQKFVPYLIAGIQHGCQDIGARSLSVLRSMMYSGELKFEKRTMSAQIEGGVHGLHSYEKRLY
For experiment [2], the target named is Inosine-5'-monophosphate dehydrogenase 2 (Homo sapiens, UniProt P12268). The experiment can be described thus: Inhibitory activity against human Inosine-5'-monophosphate dehydrogenase 2 (IMPDH type II isoform).

Molecules are shown by their SMILES. pIC50, pKi: −log10 of the molar value.

In the experiment on K562, `COc1c(C)c2c(c(O)c1C/C=C(\C)CCC(=O)O)C(=O)OC2` [MYCOPHENOLIC ACID] gave a negative-log IC50 (pIC50) of 7.10. In addition, the negative logarithm of the Ki (pKi) in experiment [1] was 7.48.

Consider `COc1c(C)c2c(c(O)c1C/C=C(\C)CCCOP(=O)(O)CP(=O)(O)OC[C@@H]1OC(n3cnc4c(N)ncnc43)[C@@H](O)[C@H]1O)C(=O)OC2` (stereo not given in full), for which, in the experiment with K562, the pIC50 is 5.82. The pKi in experiment [2] is 6.52.

`COc1c(C)c2c(c(O)c1C/C=C(\C)CCCO)C(=O)OC2`: in the experiment with K562, the pIC50 was 5.82.

As usually defined, the pIC50 is the negative decadic logarithm of the IC50, by convention in mol/L. By pKi is commonly meant the Ki on a negative log10 scale, so that one unit is a factor of ten. High values mean a small Ki, low ones a large Ki.
